{"source": "patent US20240174624A1", "about": "“CHIRAL N-(1,3,4-OXADIAZOLE-2-YL)PHENYL CARBOXYLIC ACID AMIDES AND THEIR USE AS HERBICIDES” (Bayer Aktiengesellschaft, priority 2021, published 2024)", "key": {"ZEAMX": {"test_system": "ZEAMX", "test": "Pre-emergence damage to crop plants", "format": "in vivo, Zea mays", "details": "80 g a.i./ha, comparative experiment", "description": "(§1) Seeds of monocotyledonous and dicotyledonous weed plants and crop plants are laid out in sandy loam soil in wood-fibre pots and covered with soil. The compounds of the invention, formulated in the form of wettable powders (WP) or as emulsion concentrates (EC), are then applied to the surface of the covering soil in the form of an aqueous suspension or emulsion at a water application rate equivalent to 600 to 800 l/ha, with addition of 0.2% wetting agent. After the treatment, the pots are placed in a greenhouse and kept under good growth conditions for the trial plants. The damage to the test plants is scored visually after a test period of 3 weeks by comparison with untreated controls (herbicidal activity in percent (%): 100% activity=the plants have died, 0% activity=like control plants). […] The tables below illustrate, in an illustrative manner, the post-emergence herbicidal action of the compounds of the invention, the herbicidal activity being stated in percent. In the experiments that follow, the herbicidal action of the compounds of the invention and that of the corresponding known racemic compounds closest from WO2012126932 and WO2018202535 were compared under the above-specified conditions by the pre-emergence and post-emergence method. The example numbers given in the tables relate to the compounds disclosed in the respective documents."}, "GLXMA": {"test_system": "GLXMA", "test": "Post-emergence damage to crop plants", "format": "in vivo, Glycine max", "details": "5 g a.i./ha, comparative experiment", "description": "Seeds of monocotyledonous and dicotyledonous weed and crop plants are laid out in sandy loam soil in wood-fibre pots, covered with soil and cultivated in a greenhouse under good growth conditions. 2 to 3 weeks after sowing, the test plants are treated at the one-leaf stage. The compounds of the invention, formulated in the form of wettable powders (WP) or as emulsion concentrates (EC), are then sprayed onto the green parts of the plants in the form of an aqueous suspension or emulsion at a water application rate equating to 600 to 800 l/ha, with addition of 0.2% wetting agent. After the test plants have been left to stand in the greenhouse under optimal growth conditions for about 3 weeks, the action of the preparations is assessed visually in comparison to untreated controls (herbicidal action in percent (%): 100% activity=the plants have died, 0% activity=like control plants). […] The tables below illustrate, in an illustrative manner, the post-emergence herbicidal action of the compounds of the invention, the herbicidal activity being stated in percent. In the experiments that follow, the herbicidal action of the compounds of the invention and that of the corresponding known racemic compounds closest from WO2012126932 and WO2018202535 were compared under the above-specified conditions by the pre-emergence and post-emergence method. […]"}, "VIOTR": {"test_system": "VIOTR", "test": "Post-emergence herbicidal action", "format": "in vivo, Viola tricolor", "details": "comparative experiment", "description": "(§2) Seeds of monocotyledonous and dicotyledonous weed and crop plants are laid out in sandy loam soil in wood-fibre pots, covered with soil and cultivated in a greenhouse under good growth conditions. 2 to 3 weeks after sowing, the test plants are treated at the one-leaf stage. The compounds of the invention, formulated in the form of wettable powders (WP) or as emulsion concentrates (EC), are then sprayed onto the green parts of the plants in the form of an aqueous suspension or emulsion at a water application rate equating to 600 to 800 l/ha, with addition of 0.2% wetting agent. After the test plants have been left to stand in the greenhouse under optimal growth conditions for about 3 weeks, the action of the preparations is assessed visually in comparison to untreated controls (herbicidal action in percent (%): 100% activity=the plants have died, 0% activity=like control plants). […] The tables below illustrate, in an illustrative manner, the post-emergence herbicidal action of the compounds of the invention, the herbicidal activity being stated in percent. In the experiments that follow, the herbicidal action of the compounds of the invention and that of the corresponding known racemic compounds closest from WO2012126932 and WO2018202535 were compared under the above-specified conditions by the pre-emergence and post-emergence method. The example numbers given in the tables relate to the compounds disclosed in the respective documents."}, "TRZAS": {"test_system": "TRZAS", "test": "Post-emergence damage to crop plants", "format": "in vivo, Triticum aestiva", "details": "5 g a.i./ha, comparative experiment", "description": "as §2"}, "SETVI": {"test_system": "SETVI", "test": "Post-emergence herbicidal action", "format": "in vivo, Setaria viridis", "details": "5 g a.i./ha, comparative experiment", "description": "as §2"}, "BRSNW": {"test_system": "BRSNW", "test": "Pre-emergence damage to crop plants", "format": "in vivo, Brassica napus", "details": "20 g a.i./ha, comparative experiment", "description": "as §1"}, "ECHCG": {"test_system": "ECHCG", "test": "Post-emergence herbicidal action", "format": "in vivo, Echinochloa crus-galli", "details": "20 g a.i./ha, comparative experiment", "description": "as §2"}}}
{"smiles": "Cc1nnc(NC(=O)c2ccc(C(F)F)c([S+](C)[O-])c2Cl)o1", "note": "(racemic) [7-48 from WO2018202535, 2-chloro-N-(5-methyl-1,3,4-oxadiazol-2-yl)-3-[(rac)-methylsulfinyl]-4-(difluoromethyl)benzamide, reference compound]", "values": [{"measurement": "Damage to ZEAMX", "setting": "ZEAMX", "value": 50, "unit": "%"}, {"measurement": "Damage to GLXMA", "setting": "GLXMA", "value": 60, "unit": "%"}, {"measurement": "Herbicidal action against VIOTR", "setting": "VIOTR; 5 g a.i./ha", "value": 60, "unit": "%"}, {"measurement": "Herbicidal action against VIOTR", "setting": "VIOTR; 20 g a.i./ha", "value": 80, "unit": "%"}, {"measurement": "Damage to TRZAS", "setting": "TRZAS", "value": 40, "unit": "%"}, {"measurement": "Herbicidal action against SETVI", "setting": "SETVI", "value": 80, "unit": "%"}, {"measurement": "Damage to BRSNW", "setting": "BRSNW", "value": 80, "unit": "%"}, {"measurement": "Herbicidal action against ECHCG", "setting": "ECHCG", "value": 80, "unit": "%"}]}
